Legend:
[1] = Nitric oxide gas bubbled through carrier, change in weight; format: physicochemical; settings: NO gas bubbled 40 hr, 25 °C
Procedure: This example illustrates one technique for preparing a composition in accordance with one embodiment of the invention. An accurate amount of a carrier (HNC 167-62) (see below) was introduced into a system. The carrier weight used in these experiments was approximately 250 g and the vessel size was 500 ml. The vessel was equipped with a mechanical stirrer, gas inlet, and gas outlet and was previously purged with argon for about an hour. The temperature of the carrier was kept at about 25-30° C. NO gas regulated at 5 psi (1 psi is about 6,900 Pa) and was then introduced at a controlled rate of about 1 bubble/s with continuous stirring. […] After 6 hours, the weight of the carrier had increased by 0.15%, by 12 hours by 0.25%, and by 24 hours by 0.56%. These increases in weight were believed to be significant considering the relative small molecular weight of NO versus the carrier. […] The carrier also can solidify upon cooling if the carrier is initially a solid at lower temperature.
Each carrier was taken in a 500 mL three necked flask equipped with a mechanical stirrer, gas inlet and a gas outlet. The system was purged with argon for one hour at room temperature (25° C.). Then nitric oxide gas was bubbled into the system. Then, nitric oxide gas was bubbled through carrier for stipulated amount of time. The changes in weight and color were noted. […]

[2] = tested on: humans; assay: Laser Doppler capillary blood flow, closed Hilltop chamber on forearm, Example 5; format: in vivo, human; settings: applied to the skin at 1/10% in alcohol
From the text: The formulation used in these studies contained nitric oxide dispersed in a lipid matrix. […] Nitric oxide is a very rapid acting molecule, and these studies used a system that employed laser Doppler with a covered chamber. The formulation was placed into the chamber and then attached to the skin by an adhesive layer on the covering. This provided a stable measuring device as determined by multiple normal evaluations of the capillary blood flow without treatment of nitric oxide.
A known positive control, methyl nicotinate, was applied to the skin at a concentration of 1/10% in alcohol. […] The vascular dynamics are such that when the blood vessels dilate physical parameters follow Bernoulli's law. This states that as one increases the diameter of a tube containing a liquid to flow will increase but the pressure and the speed of the liquid will decrease. The laser Doppler device accurately measured these parameters.
The test product was labeled as 10,000 ppm NO (nitric oxide). The study participants had 100 mg of the test product applied in a closed Hilltop chamber on the forearm. […]
A Moor Instruments DRT4 Laser Doppler Blood Flow Monitor (Devon, England) was used in these studies. The laser Doppler technique measured blood flow in the microcapillaries of the skin that are close to the skin surface and the blood flow in underlying arterioles and venules that help to regulate skin temperature. […]

[3] = tested on: humans; assay: Laser Doppler capillary circulation in five human subjects, Example 7; format: in vivo; settings: positive control formulation containing 0.1% methyl nicotinate
From the text: This example illustrates delivery of nitric oxide formulations to five human subjects, using procedures and formulations similar to those discussed in Example 5. Each person served as their own control for the testing. A Moor Instruments Laser Doppler was used to determine circulation. […] The formulations used produce positive, almost immediate results when applied to the skin which, in these studies, was manifested by vasodilatation of the cutaneous vascular system.
For each subject, the following creams were applied: a negative control formulation (containing no NO), 0.010 gram of a 10,000 ppm NO formulation, 0.020 gram of a 10,000 ppm NO formulation, and a positive control formulation containing 0.1% methyl nicotinate. The formulations were prepared using procedures similar to those discussed in Example 1.

Row | SMILES | % Wt. gain [1] [%] | Wt Gain [1] [g] | laser Doppler response of positive control [2] | vasodilatation [3]
1 | OCCCO [1,3-Propanediol, 1,3-propanediol] | 0.09 | 0.16 |  | 
2 | COC(=O)c1cccnc1 [methyl nicotinate] |  |  | rapid response typical of the vasodilator | vasodilatation was observed
